Test results: ChEMBL document CHEMBL1201862, “PubChem BioAssay data set” (2004)
Calls of active or inactive are those of the source.

What was measured:
[1] = target: T1, Low molecular weight phosphotyrosine protein phosphatase (Homo sapiens, UniProt P24666); assay type: functional; details: read-out: IC50_Mean
[2] = target: T1, Low molecular weight phosphotyrosine protein phosphatase; assay type: functional; details: read-out: IC50_Mean; remark: listed apart in the source
[3] = viability of uninfected HEp-2 cells – cell-based, HTS, cytotoxicity control for RSV inhibitor project, dose response (AID 2410); assay type: functional; details: human respiratory syncytial virus
Fatty acid synthase [4] = target: T2, Fatty acid synthase (Homo sapiens, UniProt P49327); test: inhibition of human FAS-TE enzyme activity – biochemical, endpoint fluorescence intensity, uHTS hits, dose response (AID 624327); assay type: functional;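 further: fluorescence from hydrolysis of an O-methyl fluorescein acyl ester substrate by the enzyme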
Fatty acid synthase [5] = target: T2, Fatty acid synthase; test: inhibition of human FAS-TE enzyme activity – biochemical, kinetic fluorescence intensity, dose response (AID 624326); assay type: functional;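 further: rate of fluorescence rise from hydrolysis of a fluorogenic O-methyl fluorescein ester substrate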
cells = assay type: functional, cell-based
[6] = target: T3, Nuclear receptor subfamily 0 group B member 1 (Homo sapiens, UniProt P51843); assay type: functional, cell-based
T3 sequence (P51843 whole entry): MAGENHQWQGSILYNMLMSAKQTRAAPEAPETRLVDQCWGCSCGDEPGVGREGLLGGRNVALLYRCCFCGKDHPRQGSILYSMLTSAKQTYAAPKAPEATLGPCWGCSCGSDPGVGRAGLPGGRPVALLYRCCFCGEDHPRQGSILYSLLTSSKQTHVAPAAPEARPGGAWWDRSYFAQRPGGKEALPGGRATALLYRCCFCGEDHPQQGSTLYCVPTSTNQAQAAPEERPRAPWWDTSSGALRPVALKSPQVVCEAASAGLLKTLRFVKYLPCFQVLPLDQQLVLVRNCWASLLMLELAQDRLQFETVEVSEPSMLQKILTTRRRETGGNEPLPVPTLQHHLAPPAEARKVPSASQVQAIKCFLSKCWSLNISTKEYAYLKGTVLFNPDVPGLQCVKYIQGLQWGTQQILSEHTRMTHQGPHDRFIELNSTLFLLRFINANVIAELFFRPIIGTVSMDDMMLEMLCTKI

[7] = target: T4, Probable nicotinate-nucleotide adenylyltransferase (Staphylococcus aureus (strain N315), UniProt P65502); assay type: functional, Staphylococcus aureus subsp. aureus N315;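 on IC50 Mean: confirmatory dose-response retesting of NadD inhibitor hits first found in an ultra-high-throughput screen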
[8] = target: T4, Probable nicotinate-nucleotide adenylyltransferase; assay type: functional, Staphylococcus aureus subsp. aureus N315; details: read-out: IC50_Mean
Vero = test: viability loss in Vero cells – cell-based, plate reader, cherry-pick samples, cytotoxicity control, dose response (AID 687020); assay type: functional; details: Chlorocebus sabaeus
Caspase-6 = target: T5, Caspase-6 (Homo sapiens, UniProt P55212); test: inhibition of CASP6 peptide cleavage – biochemical, VEID-R110 fluorescence, cherry-pick, dose response (AID 720632)
T5 sequence (P55212 whole entry): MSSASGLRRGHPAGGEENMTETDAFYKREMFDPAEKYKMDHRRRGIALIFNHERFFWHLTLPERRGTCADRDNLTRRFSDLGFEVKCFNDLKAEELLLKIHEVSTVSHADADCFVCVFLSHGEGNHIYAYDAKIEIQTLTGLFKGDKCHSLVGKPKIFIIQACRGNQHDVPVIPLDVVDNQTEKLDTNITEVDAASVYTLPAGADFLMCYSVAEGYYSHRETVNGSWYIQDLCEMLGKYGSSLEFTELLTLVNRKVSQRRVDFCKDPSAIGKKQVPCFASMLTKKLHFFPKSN

Beta-lactamase [9] = target: Beta-lactamase (Salmonella choleraesuis (strain SC-B67), UniProt Q5J463); test: Epi-absorbance-based counterscreen for selective VIM-2 inhibitors: dose response biochemical high throughput screening assay to identify inhibitors of TEM-1 serine-beta-lactamase.
Beta-lactamase [10] = target: T6, Beta-lactamase (Pseudomonas aeruginosa, UniProt Q79MP6); test: inhibition of IMP-1 beta-lactamase activity – biochemical, epi-absorbance, selectivity assay for VIM-2 inhibitor project, dose response (AID 1920)
Beta-lactamase [11] = target: T6, Beta-lactamase; test: […] counterscreen for selective VIM-2 inhibitors: dose response biochemical high throughput screening assay to identify inhibitors of IMP-1 metallo-beta-lactamase.
HEK293 = test: cells; assay type: functional, cell-based; details: Homo sapiens
[12] = target: T3, Nuclear receptor subfamily 0 group B member 1; test: Luminescence-based cell-based high throughput dose response assay for inhibitors of the orphan nuclear receptor subfamily 0, group B, member 1 (DAX1; NR0B1). [Related pubchem assays (depositor defined):AID504766, AID504790]; assay type: functional
[13] = viability loss in HepG2 hepatoma cells – cell-based, ATP luminescence, cherry-pick, activator set 2, cytotoxicity control, dose response (AID 1053143); assay type: functional
[14] = tested on: Streptococcus sp. 'group A'; test: Streptococcus pyogenes SK(-)GAS viability under kanamycin – luminescence, BacTiterGlo, confirmation, counter-screen for streptokinase expression inhibitor project, dose response (AID 1900); assay type: functional, organism-based
Streptokinase A = target: T7, Streptokinase A (Streptococcus pyogenes serotype M1, UniProt P10520); test: viability-normalized secreted streptokinase activity reduction – plasminogen activation absorbance, OD405, dose response (AID 1914); assay type: functional, Streptococcus pyogenes M1 GAS;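 further: secreted streptokinase activity via plasminogen activation per viability signal from cell pellet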
T7 sequence (P10520 whole entry): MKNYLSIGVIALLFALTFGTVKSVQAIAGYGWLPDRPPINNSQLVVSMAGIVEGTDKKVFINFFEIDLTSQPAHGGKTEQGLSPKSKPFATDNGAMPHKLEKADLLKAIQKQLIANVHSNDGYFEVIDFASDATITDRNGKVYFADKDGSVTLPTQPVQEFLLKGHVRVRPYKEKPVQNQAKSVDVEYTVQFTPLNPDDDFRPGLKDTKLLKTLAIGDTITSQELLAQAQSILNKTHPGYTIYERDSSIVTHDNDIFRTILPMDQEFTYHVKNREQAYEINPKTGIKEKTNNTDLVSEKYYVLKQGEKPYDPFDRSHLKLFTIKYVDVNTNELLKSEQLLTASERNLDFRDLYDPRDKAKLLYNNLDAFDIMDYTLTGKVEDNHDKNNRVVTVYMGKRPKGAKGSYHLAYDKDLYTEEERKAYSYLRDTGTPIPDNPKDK

Streptococcus = test: GAS UMAA2166 growth inhibition – luminescence, BacTiterGlo, counter-screen for streptokinase expression inhibitor project, dose response (AID 1915); assay type: functional, organism-based;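 further: potency for reduction of bacterial viability or growth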
Nonstructural protein 1 = Nonstructural protein 1 (Influenza A virus, UniProt Q194T2); assay type: functional, Influenza A virus (A/California/07/2009(H1N1))
[15] = target: Matrix metalloproteinase-14 (Homo sapiens, UniProt P50281); test: Dose Response confirmation of uHTS hits for a small molecule inhibitors of MT1-MMP activation in a fluorescence assay set 1.; assay type: functional
[16] = target: T8, Protein disulfide-isomerase (Homo sapiens, UniProt P07237); test: inhibition of PDI-driven insulin aggregation – biochemical, turbidity, absorbance, cherry-picked samples, dose response (AID 602350); assay type: functional
[17] = target: T8, Protein disulfide-isomerase; test: inhibition of PDI-mediated insulin reduction – biochemical, turbidity, absorbance, cherry-picked samples, set 2, dose response (AID 624274); assay type: functional
Mu-type opioid receptor = Mu-type opioid receptor (Homo sapiens, UniProt P35372); assay type: functional, cell-based;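 further: U2OS cells with beta-arrestin recruitment to OPRM1 by beta-gal complementation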
[18] = target: 5-hydroxytryptamine receptor 2A (Mus musculus, UniProt P35363); assay type: functional, cell-based;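 further: CHO-K1 cells with tagged receptor and beta-arrestin; agonist potency measured as compound-induced activation of the receptor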
[19] = target: Long-chain-fatty-acid--AMP ligase FadD28 (Mycobacterium tuberculosis, UniProt P9WQ59); test: Fluorescence polarization aasay to screen for inhibitors that compete for the binding of FadD28 to a bisubstrate Measured in Biochemical System Using Plate Reader - 2147-01_Inhibitor_Dose_CherryPick_Activity.; assay type: functional, Mycobacterium tuberculosis H37Rv
H9c2 = test: cells; assay type: functional, cell-based; details: Rattus norvegicus, H9c2, Myocardium;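 further: confirmatory concentration-response retest of ultra-high-throughput screening hits for modulation of myocardial damage; cell death induced by hydrogen peroxide oxidative stress; compound pretreatment for 60 min then peroxide exposure for 2 h; potency is for protecting the cells against peroxide damage rather than for killing them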
[20] = target: ATP-dependent translocase ABCB1 (Homo sapiens, UniProt P08183); test: inhibition of BCRP-mediated JC-1 efflux – Ig-MXP3 cells, flow cytometry, set 2, dose response (AID 504566); assay type: functional; details: read-out: EC50_MICROM_;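 further: flow cytometry median green fluorescence of retained JC-1 dye; potency of efflux pump inhibition measured as rising substrate retention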
[21] = target: Nuclear receptor subfamily 5 group A member 2 (Homo sapiens, UniProt O00482); assay type: functional, cell-based;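 further: HEK293T cells transfected with LRH-1 and a StAR promoter luciferase reporter; potency for inhibitors that lower LRH-1 driven reporter light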
Steroidogenic factor 1 = Steroidogenic factor 1 (Homo sapiens, UniProt Q13285); test: Counterscreen for inverse agonists of the liver receptor homolog-1 (LRH-1; NR5A2): Luminescence-based cell-based high throughput dose response assay to identify inverse agonists of the Steroidogenic Factor 1 Nuclear Receptor (SF1; NR5A1).; assay type: functional
[22] = nonselective StAR promoter luciferase inhibitors – cell-based, luminescence, luciferase reporter, counter-screen for LRH-1 inverse agonist project, dose response (AID 651969); assay type: functional
[23] = A Cell-Based Confirmatory Screen for Compounds that Inhibit VEEV, TC-83 (8).; assay type: functional
[24] = T. cruzi growth inhibition in host cells, dose response, cell-based, plate reader, dry powder, set 2 (AID 652275); assay type: functional
Aminopeptidase N = target: T9, Aminopeptidase N (Plasmodium falciparum FcB1/Columbia, UniProt O96935); test: malaria alanyl aminopeptidase activity blockers – biochemical, fluorogenic H-Leu-NHMec substrate, 1536-well (AID 1445); parameters: species or system Plasmodium falciparum 3D7, 3D7
T9 sequence (O96935 whole entry): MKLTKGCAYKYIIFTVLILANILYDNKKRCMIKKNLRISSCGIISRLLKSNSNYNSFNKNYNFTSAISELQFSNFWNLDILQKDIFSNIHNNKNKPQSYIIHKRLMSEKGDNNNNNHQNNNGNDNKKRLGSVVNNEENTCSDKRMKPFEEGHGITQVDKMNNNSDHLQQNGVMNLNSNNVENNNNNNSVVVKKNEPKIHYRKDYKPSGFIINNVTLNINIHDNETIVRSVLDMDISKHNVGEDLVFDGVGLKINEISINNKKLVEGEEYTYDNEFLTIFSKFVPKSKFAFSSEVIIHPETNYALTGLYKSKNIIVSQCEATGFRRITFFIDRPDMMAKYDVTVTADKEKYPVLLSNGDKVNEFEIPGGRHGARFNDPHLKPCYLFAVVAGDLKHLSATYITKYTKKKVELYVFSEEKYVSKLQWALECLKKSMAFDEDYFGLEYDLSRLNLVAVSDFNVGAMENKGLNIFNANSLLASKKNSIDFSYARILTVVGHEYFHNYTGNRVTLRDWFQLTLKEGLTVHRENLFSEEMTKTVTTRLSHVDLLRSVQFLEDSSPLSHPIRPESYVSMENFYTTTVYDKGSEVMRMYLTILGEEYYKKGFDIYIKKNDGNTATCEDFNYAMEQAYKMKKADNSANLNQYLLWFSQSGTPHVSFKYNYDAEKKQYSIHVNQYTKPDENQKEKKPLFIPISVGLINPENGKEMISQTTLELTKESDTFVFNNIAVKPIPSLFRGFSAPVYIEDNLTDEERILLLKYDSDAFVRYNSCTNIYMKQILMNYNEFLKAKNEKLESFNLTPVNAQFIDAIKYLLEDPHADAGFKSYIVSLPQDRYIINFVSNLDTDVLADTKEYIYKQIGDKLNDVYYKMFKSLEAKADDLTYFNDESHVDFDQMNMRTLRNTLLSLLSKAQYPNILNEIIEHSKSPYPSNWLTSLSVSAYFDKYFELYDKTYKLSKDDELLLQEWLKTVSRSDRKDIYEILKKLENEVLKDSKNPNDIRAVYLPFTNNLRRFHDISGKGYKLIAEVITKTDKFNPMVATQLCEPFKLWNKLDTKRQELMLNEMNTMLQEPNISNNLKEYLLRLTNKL

[25] = bead-based luminescence quenchers, dual-tagged ARNT – biochemical, AlphaScreen, cherry-pick, artefact control for ARNT-TACC3 interaction inhibitor project, dose response (AID 651705); assay type: functional;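 further: AlphaScreen bead proximity signal that flags compounds interfering with the detection technology; potency reflects signal decrease which marks the compound as an assay artifact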

T2 sequence (P49327 whole entry): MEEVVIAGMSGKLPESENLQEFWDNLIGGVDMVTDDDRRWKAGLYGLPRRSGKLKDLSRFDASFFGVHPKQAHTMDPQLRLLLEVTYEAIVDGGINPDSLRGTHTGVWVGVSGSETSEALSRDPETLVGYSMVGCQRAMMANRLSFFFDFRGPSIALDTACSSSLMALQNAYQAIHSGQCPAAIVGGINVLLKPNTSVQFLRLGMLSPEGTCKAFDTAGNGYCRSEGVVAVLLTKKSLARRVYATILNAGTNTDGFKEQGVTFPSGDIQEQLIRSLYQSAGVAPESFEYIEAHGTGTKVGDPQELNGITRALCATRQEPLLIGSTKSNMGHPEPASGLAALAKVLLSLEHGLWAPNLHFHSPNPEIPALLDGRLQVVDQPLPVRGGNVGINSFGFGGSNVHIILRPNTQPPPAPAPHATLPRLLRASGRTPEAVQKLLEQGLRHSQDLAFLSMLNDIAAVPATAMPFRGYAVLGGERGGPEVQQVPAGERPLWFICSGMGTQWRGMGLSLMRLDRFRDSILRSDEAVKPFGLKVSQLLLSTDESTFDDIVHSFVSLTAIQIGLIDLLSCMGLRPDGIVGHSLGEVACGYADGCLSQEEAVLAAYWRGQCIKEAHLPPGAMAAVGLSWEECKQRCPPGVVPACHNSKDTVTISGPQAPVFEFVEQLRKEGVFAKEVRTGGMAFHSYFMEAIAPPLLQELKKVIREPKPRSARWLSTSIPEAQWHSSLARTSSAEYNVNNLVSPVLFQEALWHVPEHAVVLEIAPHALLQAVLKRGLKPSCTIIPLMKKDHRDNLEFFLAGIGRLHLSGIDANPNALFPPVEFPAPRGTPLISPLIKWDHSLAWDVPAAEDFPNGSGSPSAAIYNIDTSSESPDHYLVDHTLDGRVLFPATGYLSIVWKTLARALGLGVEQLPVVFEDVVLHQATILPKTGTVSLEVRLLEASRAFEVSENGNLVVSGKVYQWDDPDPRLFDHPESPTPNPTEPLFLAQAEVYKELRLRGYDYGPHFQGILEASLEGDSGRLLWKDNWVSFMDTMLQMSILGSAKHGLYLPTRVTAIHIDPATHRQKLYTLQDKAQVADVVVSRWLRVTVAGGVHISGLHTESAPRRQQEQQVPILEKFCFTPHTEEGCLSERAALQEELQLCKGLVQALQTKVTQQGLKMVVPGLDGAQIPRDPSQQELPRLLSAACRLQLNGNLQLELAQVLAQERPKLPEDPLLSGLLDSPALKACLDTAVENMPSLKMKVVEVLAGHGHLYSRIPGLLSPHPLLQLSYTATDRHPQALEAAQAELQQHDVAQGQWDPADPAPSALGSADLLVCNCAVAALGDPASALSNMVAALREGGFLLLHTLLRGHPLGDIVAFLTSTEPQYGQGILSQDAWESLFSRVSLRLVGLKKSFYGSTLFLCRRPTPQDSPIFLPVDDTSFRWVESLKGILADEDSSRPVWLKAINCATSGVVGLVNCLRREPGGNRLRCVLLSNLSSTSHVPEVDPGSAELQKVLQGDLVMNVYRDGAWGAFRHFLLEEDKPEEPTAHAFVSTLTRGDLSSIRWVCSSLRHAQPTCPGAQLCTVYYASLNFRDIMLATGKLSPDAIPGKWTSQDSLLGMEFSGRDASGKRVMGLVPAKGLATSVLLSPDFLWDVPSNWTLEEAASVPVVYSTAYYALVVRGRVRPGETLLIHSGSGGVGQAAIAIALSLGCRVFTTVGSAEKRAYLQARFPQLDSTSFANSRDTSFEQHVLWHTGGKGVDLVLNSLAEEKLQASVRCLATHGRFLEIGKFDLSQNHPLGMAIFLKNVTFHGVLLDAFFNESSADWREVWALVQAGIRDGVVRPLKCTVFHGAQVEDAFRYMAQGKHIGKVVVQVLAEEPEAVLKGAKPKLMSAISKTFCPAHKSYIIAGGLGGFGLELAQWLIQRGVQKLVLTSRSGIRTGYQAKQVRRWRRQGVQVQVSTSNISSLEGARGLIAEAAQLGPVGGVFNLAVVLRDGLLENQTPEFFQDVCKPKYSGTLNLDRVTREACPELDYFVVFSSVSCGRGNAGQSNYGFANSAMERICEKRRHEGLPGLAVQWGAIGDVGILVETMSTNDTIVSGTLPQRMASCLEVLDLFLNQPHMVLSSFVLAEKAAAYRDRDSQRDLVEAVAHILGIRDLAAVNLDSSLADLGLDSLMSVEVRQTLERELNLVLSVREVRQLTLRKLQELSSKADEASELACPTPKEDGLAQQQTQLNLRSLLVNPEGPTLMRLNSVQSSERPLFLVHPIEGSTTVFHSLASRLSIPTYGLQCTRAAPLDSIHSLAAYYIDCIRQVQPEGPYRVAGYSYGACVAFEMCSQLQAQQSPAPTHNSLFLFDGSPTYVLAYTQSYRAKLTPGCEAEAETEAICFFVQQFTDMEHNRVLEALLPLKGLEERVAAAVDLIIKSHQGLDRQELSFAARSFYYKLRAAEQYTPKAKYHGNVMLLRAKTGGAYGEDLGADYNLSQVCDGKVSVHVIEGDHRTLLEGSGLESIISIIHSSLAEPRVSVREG
T4 sequence (P65502 whole entry): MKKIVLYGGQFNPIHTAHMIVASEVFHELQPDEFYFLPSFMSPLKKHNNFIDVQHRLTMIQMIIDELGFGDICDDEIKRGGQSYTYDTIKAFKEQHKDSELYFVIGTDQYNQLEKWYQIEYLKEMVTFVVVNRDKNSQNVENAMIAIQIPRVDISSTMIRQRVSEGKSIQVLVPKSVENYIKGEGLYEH
T1 sequence (P24666 whole entry): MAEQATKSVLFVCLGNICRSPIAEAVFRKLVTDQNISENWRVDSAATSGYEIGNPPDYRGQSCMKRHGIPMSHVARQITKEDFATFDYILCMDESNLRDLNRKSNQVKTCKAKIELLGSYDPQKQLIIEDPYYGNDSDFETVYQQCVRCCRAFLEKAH
T8 sequence (P07237 whole entry): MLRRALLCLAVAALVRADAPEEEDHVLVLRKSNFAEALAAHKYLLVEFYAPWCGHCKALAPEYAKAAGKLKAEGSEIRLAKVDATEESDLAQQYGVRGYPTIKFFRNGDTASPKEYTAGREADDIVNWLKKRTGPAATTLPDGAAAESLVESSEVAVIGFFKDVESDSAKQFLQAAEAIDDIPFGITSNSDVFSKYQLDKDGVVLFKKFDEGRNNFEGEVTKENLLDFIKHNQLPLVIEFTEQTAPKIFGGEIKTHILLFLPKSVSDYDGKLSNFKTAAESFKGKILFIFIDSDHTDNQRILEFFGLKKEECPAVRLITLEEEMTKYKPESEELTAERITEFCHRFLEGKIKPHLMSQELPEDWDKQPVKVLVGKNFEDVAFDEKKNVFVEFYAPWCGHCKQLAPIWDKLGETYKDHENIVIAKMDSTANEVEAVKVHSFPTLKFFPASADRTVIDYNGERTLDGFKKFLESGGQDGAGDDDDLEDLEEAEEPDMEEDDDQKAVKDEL
T6 sequence (Q79MP6 whole entry): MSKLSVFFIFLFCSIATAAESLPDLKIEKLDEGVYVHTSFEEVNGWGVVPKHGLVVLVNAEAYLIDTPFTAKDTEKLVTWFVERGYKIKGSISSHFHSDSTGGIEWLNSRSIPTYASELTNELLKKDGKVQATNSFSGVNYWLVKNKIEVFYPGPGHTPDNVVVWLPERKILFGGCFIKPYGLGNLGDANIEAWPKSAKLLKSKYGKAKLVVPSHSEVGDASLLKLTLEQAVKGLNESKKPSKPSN
Chain of Long-chain-fatty-acid--AMP ligase FadD28 (P9WQ59 whole entry): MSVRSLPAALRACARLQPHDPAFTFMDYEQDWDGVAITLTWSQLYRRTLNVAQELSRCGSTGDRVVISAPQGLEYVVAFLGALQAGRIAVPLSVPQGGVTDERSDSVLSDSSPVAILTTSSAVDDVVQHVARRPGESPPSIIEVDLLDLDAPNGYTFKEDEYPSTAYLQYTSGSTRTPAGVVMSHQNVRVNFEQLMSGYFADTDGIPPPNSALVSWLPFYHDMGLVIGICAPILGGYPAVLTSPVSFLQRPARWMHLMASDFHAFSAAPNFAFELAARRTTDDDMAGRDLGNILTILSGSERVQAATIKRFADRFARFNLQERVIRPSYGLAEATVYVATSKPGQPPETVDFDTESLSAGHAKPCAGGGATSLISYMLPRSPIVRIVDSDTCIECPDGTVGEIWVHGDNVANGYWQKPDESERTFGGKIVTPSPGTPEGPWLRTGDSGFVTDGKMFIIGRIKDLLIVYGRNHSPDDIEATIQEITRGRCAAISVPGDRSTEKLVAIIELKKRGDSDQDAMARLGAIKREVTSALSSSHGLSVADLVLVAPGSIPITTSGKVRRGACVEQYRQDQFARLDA
Chain of Beta-lactamase (Salmonella choleraesuis (strain SC-B67), UniProt Q5J463) (Q5J463 whole entry): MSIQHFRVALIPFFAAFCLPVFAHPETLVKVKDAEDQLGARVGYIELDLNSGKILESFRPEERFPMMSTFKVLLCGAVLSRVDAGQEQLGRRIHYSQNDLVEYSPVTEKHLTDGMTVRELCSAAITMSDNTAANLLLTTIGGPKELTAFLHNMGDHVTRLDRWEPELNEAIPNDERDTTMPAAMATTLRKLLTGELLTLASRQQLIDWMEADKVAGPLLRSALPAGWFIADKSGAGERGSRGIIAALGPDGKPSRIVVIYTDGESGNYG
Chain of Nuclear receptor subfamily 5 group A member 2 (O00482 whole entry): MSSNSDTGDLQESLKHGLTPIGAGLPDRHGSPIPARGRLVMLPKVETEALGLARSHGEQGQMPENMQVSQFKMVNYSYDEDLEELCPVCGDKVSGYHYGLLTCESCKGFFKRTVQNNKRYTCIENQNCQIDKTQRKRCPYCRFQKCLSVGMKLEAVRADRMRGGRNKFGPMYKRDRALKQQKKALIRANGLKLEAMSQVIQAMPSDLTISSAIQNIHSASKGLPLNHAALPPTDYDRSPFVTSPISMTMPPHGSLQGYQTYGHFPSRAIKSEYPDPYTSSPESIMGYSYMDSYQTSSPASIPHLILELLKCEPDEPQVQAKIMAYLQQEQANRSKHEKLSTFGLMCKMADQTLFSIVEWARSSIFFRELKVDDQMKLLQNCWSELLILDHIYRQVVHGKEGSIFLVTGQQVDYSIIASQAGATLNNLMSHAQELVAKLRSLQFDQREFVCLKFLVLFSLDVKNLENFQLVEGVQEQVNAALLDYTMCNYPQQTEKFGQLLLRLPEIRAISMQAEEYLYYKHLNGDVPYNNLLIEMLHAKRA

CN(C)c1cc(-c2ccc(Cl)c(Cl)c2)oc(=O)c1Cl
IC50 [1]: 35.4 µM (inactive)
IC50 [2]: 8.63 µM (active)

O=S(=O)(Nc1cccc(-c2ccc(N3CCCCCC3)nn2)c1)c1ccccc1F
CC50 [3]: > 50 µM (active)
IC50 (Fatty acid synthase [4]): 7.03 µM (active)
IC50 (Fatty acid synthase [5]): 6.9 µM (active)
IC50 (cells): > 67.6 µM (inactive)
IC50 [6]: > 67.6 µM (inactive)

CCOC(=O)C1=C(C)c2ccccc2N(C(=O)OC)C1(C)C(=O)OCC (stereo unspecified)
IC50 [7]: 15.6 µM (active)
IC50 [8]: 34.6 µM (active)

Cc1c(C(=O)N2CCCC2)oc2ccc(Br)cc12
AC50 (Vero): 35.1 µM (active)
AC50 (Caspase-6): 23.5 µM (active)

Sc1nnc(-c2ccccc2)n1Cc1ccccc1
IC50 (Beta-lactamase [9]): > 59.6 µM (inactive)
IC50 (Beta-lactamase [10]): > 59.6 µM (inactive)
IC50 (Beta-lactamase [11]): > 59.6 µM (inactive)

Cc1ccc(NC(=O)c2ccc(Cl)cc2Cl)cc1O
IC50 (HEK293): > 67.6 µM (inactive)
IC50 [12]: > 67.6 µM (inactive)
AC50 [13]: 26 µM (active)

Nc1nc(-c2ccccc2)c(N=Nc2cccc3ccccc23)s1
EC50 [14]: 4.14 µM (active)
EC50 (Streptokinase A): > 150 µM (not active)
EC50 (Streptococcus): > 150 µM (not active)
IC50 (Nonstructural protein 1): 9.98 µM (active)
IC50 [15]: 31.3 µM (inactive)

CC(C)N(C)C(=O)CCc1nnc(CCc2c[nH]c3ccccc23)o1
AC50 [16]: < 0.009 µM (active)
AC50 [17]: 0.009 µM (active)

CCOc1cc(CN2CCN(C(=O)c3ccco3)CC2)ccc1OC
EC50 (Mu-type opioid receptor): 92.5 µM (inactive)
EC50 [18]: 5.88 µM (active)

Cc1ccc(NC(S)=NNc2ccc(C(=O)O)cc2[N+](=O)[O-])cc1C
AC50 [19]: > 100 µM (inactive)

COc1ccc(-c2cc3nc(C)cc(N4CCN(C(=O)c5ccoc5)CC4)n3n2)cc1
IC50 (H9c2): 27.3 µM (active)
EC50 [20]: 6.12 µM (active)

COc1cccc(-c2cnc3c(NC(C)=O)cc(-c4ccc(S(C)(=O)=O)cc4)cn23)c1
IC50 [21]: 9.25 µM (active)
IC50 (Steroidogenic factor 1): 4.62 µM (active)
IC50 [22]: 23.5 µM (inactive)

CCN1CCN(Cc2nc3ncc([N+](=O)[O-])cc3c(=O)n2-c2ccccc2)CC1
IC50 [23]: 0.832 µM (active)

CC(C)N1C[C@@H](CN(C)Cc2ccc(Cl)cc2)Oc2c(NC(=O)c3ccnnc3)cccc2C1=O
AC50 [24]: 0.198 µM (active)

O=C(N/N=C\c1cccc([N+](=O)[O-])c1O)C1COc2ccccc2O1 (stereo unspecified)
IC50 (Aminopeptidase N): 31.4 µM (active)
AC50 [25]: 90.6 µM (active)
